Experimental findings from PMC10294756 (Journal of Enzyme Inhibition and Medicinal Chemistry, 2023) are described below.

Like-named read-outs stand apart in the source and are kept apart here.

In one assay the test system is SMMC-7721. As to the kind of experiment: MTT assay, SMMC-7721 cells. In kind it is cell-based, human. Particulars: read-out: IC50 SMMC-7721.
The next assay has as its system HuH7. As to the kind of experiment: MTT assay, HuH7 cells. In kind it is cell-based, human. The settings on record: read-out: IC50 HuH7. On the technique in general: Tetrazolium dyes change colour on reduction, which living cells bring about.
The test system of the next assay is HepG2. In words: MTT assay, HepG2 cells. In kind it is cell-based, human. The settings on record: for IC50: read-out: IC50 HepG2.
The subject of assay [1] is HCC cell lines (HepG2, HuH7, and SMMC-7721). In words: MTT assay, results stated over the three HCC cell lines. The assay is classed as cell-based. Particulars: Homo sapiens, 48 h, read-out: IC50 against HCC cells (span over cell lines).
In a further assay the test system is LO2. As to the kind of experiment: MTT assay, normal hepatocyte LO2. In kind it is cell-based, human.
Where [2] appears, read: Homo sapiens, L02, 48 h, read-out: IC50 LO2, normal liver cell line, MTT, 48 h.
[3] abbreviates: MTT, 48 h, mean ± SD of three experiments.

As usually defined, the IC50 is the concentration that inhibits the measured activity by half. As to `Cc1cc(Nc2ccc(C(=O)N/N=C/c3ccsc3)cc2)c2cccc(O)c2n1` [7A, (E)-4-((8-hydroxy-2-methylquinolin-4-yl)amino)-N'-(thiophen-3-ylmethylene)benzohydrazide], the IC50 is 52.8 ± 1.56 µM in the assay with SMMC-7721 (Homo sapiens, SMMC-7721, 48 h); 31.7 ± 3.6 µM in the assay on HuH7 (Homo sapiens, Huh-7, 48 h); 30.8 ± 2.52 µM with HepG2 (Homo sapiens, HepG2, 48 h); 30.8 to 52.8 µM in assay [1].
As to `Cc1cc(Nc2ccc(C(=O)N/N=C/c3sccc3Br)cc2)c2cccc(O)c2n1` [7B, (E)-N'-((3-bromothiophen-2-yl)methylene)-4-((8-hydroxy-2-methylquinolin-4-yl)amino)benzohydrazide], the IC50 in the assay on LO2 (setting [2]) is more than 90 µM; in the assay with SMMC-7721 (Homo sapiens, SMMC-7721, 48 h), 26.1 ± 1 µM; with HuH7 (Homo sapiens, Huh-7, 48 h) it was 18 ± 1.26 µM; in the assay with HepG2 (Homo sapiens, HepG2, 48 h), 16.2 ± 1.53 µM; in assay [1], less than 30 µM.
As for `Cc1cc(Nc2ccc(C(=O)N/N=C/c3cc(Br)cs3)cc2)c2cccc(O)c2n1` [7C, (E)-N'-((4-bromothiophen-2-yl)methylene)-4-((8-hydroxy-2-methylquinolin-4-yl)amino)benzohydrazide], the IC50 with LO2 (setting [2]) is 21 ± 1.18 µM; with SMMC-7721 (Homo sapiens, SMMC-7721, 48 h), 16 ± 0.54 µM; in the assay on HuH7 (Homo sapiens, Huh-7, 48 h), 21.2 ± 2.28 µM; with HepG2 (Homo sapiens, HepG2, 48 h), 16.4 ± 0.7 µM; in assay [1], less than 30 µM.
For the compound `CSc1ccc(/C=N/NC(=O)c2ccc(Nc3cc(C)nc4c(O)cccc34)cc2)cc1` [7E, (E)-4-((8-hydroxy-2-methylquinolin-4-yl)amino)-N'-(4-(methylthio)benzylidene)benzohydrazide], the IC50 with LO2 (setting [2]) was more than 90 µM; with SMMC-7721 (Homo sapiens, SMMC-7721, 48 h), 22.94 ± 0.03 µM; in the assay on HuH7 (Homo sapiens, Huh-7, 48 h), 25.6 ± 1.81 µM; with HepG2 (Homo sapiens, HepG2, 48 h), 17.7 ± 0.3 µM.
As for `Cc1cc(Nc2ccc(C(=O)N/N=C/c3ccccc3Cl)cc2)c2cccc(O)c2n1` [7F, (E)-N'-(2-chlorobenzylidene)-4-((8-hydroxy-2-methylquinolin-4-yl)amino)benzohydrazide], the IC50 was 15 ± 2.16 µM in the assay with LO2 (setting [2]); 17.9 ± 1.03 µM with SMMC-7721 (Homo sapiens, SMMC-7721, 48 h); 22.3 ± 1.88 µM with HuH7 (Homo sapiens, Huh-7, 48 h); 13.6 ± 2.14 µM in the assay with HepG2 (Homo sapiens, HepG2, 48 h).
For `Cc1cc(Nc2ccc(C(=O)N/N=C/c3cccc(C(F)(F)F)c3)cc2)c2cccc(O)c2n1` [7G, (E)-4-((8-hydroxy-2-methylquinolin-4-yl)amino)-N'-(3-(trifluoromethyl)benzylidene)benzohydrazide], the IC50 with LO2 (setting [2]) was found to be 19.9 ± 2.01 µM; in the assay with SMMC-7721 (Homo sapiens, SMMC-7721, 48 h), 20.6 ± 2.56 µM; in the assay with HuH7 (Homo sapiens, Huh-7, 48 h), 6.88 ± 2.04 µM; with HepG2 (Homo sapiens, HepG2, 48 h), 15.5 ± 1.45 µM.
The corresponding values for `Cc1cc(Nc2ccc(C(=O)N/N=C/c3ccc(C(F)(F)F)cc3)cc2)c2cccc(O)c2n1` [7H, (E)-4-((8-hydroxy-2-methylquinolin-4-yl)amino)-N'-(4-(trifluoromethyl)benzylidene)benzohydrazide] are more than 90 µM, 27.68 ± 0.25 µM, 23.3 ± 0.33 µM and 18.1 ± 0.98 µM.
On to `C#Cc1ccc(/C=N/NC(=O)c2ccc(Nc3cc(C)nc4c(O)cccc34)cc2)cc1` [7I, (E)-N'-(4-ethynylbenzylidene)-4-((8-hydroxy-2-methylquinolin-4-yl)amino)benzohydrazide], for which the IC50 with SMMC-7721 (Homo sapiens, SMMC-7721, 48 h) was found to be 33.9 ± 3.58 µM; with HuH7 (Homo sapiens, Huh-7, 48 h), 12.8 ± 0.36 µM; in the assay with HepG2 (Homo sapiens, HepG2, 48 h), 28.3 ± 1.17 µM.
In the case of `COc1cc(/C=N/NC(=O)c2ccc(Nc3cc(C)nc4c(O)cccc34)cc2)cc(OC)c1` [7J, (E)-N’-(3,5-dimethoxybenzylidene)-4-((8-hydroxy-2-methylquinolin-4-yl)amino)benzohydrazide], the IC50 in the assay on SMMC-7721 (Homo sapiens, SMMC-7721, 48 h) is 37.2 ± 2.23 µM; in the assay with HuH7 (Homo sapiens, Huh-7, 48 h), 26 ± 0.54 µM; in the assay on HepG2 (Homo sapiens, HepG2, 48 h), 27.5 ± 2.12 µM.
For the compound `COc1ccc(F)c(/C=N/NC(=O)c2ccc(Nc3cc(C)nc4c(O)cccc34)cc2)c1` [7K, (E)-N'-(2-fluoro-5-methoxybenzylidene)-4-((8-hydroxy-2-methylquinolin-4-yl)amino)benzohydrazide], the IC50 with SMMC-7721 (Homo sapiens, SMMC-7721, 48 h) was found to be 28.2 ± 2.06 µM; in the assay on HuH7 (Homo sapiens, Huh-7, 48 h), 34.6 ± 2.97 µM; with HepG2 (Homo sapiens, HepG2, 48 h) it was 20.1 ± 1.18 µM.
With `Cc1cc(Nc2ccc(C(=O)N/N=C/c3cccc(F)c3F)cc2)c2cccc(O)c2n1` [7L, (E)-N'-(2,3-difluorobenzylidene)-4-((8-hydroxy-2-methylquinolin-4-yl)amino)benzohydrazide], the IC50 in the assay with LO2 (setting [2]) turned out to be 25 ± 3.16 µM; in the assay on SMMC-7721 (Homo sapiens, SMMC-7721, 48 h), 25.4 ± 1.63 µM; in the assay on HuH7 (Homo sapiens, Huh-7, 48 h), 15.9 ± 2.8 µM; in the assay with HepG2 (Homo sapiens, HepG2, 48 h) it was 21 ± 1.51 µM.
As for `Cc1cc(Nc2ccc(C(=O)N/N=C/c3ccc(Br)c(F)c3)cc2)c2cccc(O)c2n1` [7M, (E)-N'-(4-bromo-3-fluorobenzylidene)-4-((8-hydroxy-2-methylquinolin-4-yl)amino)benzohydrazide], the IC50 in the assay on LO2 (setting [2]) is more than 90 µM; in the assay with SMMC-7721 (Homo sapiens, SMMC-7721, 48 h), 18.2 ± 1.94 µM; with HuH7 (Homo sapiens, Huh-7, 48 h), 23.8 ± 1.82 µM; with HepG2 (Homo sapiens, HepG2, 48 h), 15.8 ± 3.68 µM; in assay [1], 15.8 to 27.6 µM.
For the compound `Cc1cc(Nc2ccc(C(=O)N/N=C/c3ccc(F)cc3Br)cc2)c2cccc(O)c2n1` [7O, (E)-N'-(2-bromo-4-fluorobenzylidene)-4-((8-hydroxy-2-methylquinolin-4-yl)amino)benzohydrazide], the IC50 was 69.2 ± 4.58 µM with LO2 (setting [2]); 16.9 ± 1.97 µM with SMMC-7721 (Homo sapiens, SMMC-7721, 48 h); 13.7 ± 0.61 µM in the assay with HuH7 (Homo sapiens, Huh-7, 48 h); 15.7 ± 1.31 µM in the assay with HepG2 (Homo sapiens, HepG2, 48 h).
As for `Cc1cc(Nc2ccc(C(=O)N/N=C/c3ccc(F)c(C(F)(F)F)c3)cc2)c2cccc(O)c2n1` [7Q, (E)-N'-(4-fluoro-3-(trifluoromethyl)benzylidene)-4-((8-hydroxy-2-methylquinolin-4-yl)amino)benzohydrazide], the IC50 in the assay on LO2 (setting [2]) is 4.82 ± 0.67 µM; in the assay on SMMC-7721 (Homo sapiens, SMMC-7721, 48 h), 21.6 ± 1.13 µM; with HuH7 (Homo sapiens, Huh-7, 48 h), 29.2 ± 3.24 µM; in the assay with HepG2 (Homo sapiens, HepG2, 48 h), 12.7 ± 1.61 µM.
Turning to `Cc1cc(Nc2ccc(C(=O)N/N=C/c3cccc(Br)n3)cc2)c2cccc(O)c2n1` [7R, (E)-N'-((6-bromopyridin-2-yl)methylene)-4-((8-hydroxy-2-methylquinolin-4-yl)amino)benzohydrazide], the IC50 in the assay on SMMC-7721 (Homo sapiens, SMMC-7721, 48 h) was 45.8 ± 0.64 µM; with HuH7 (Homo sapiens, Huh-7, 48 h), 32.2 ± 4.3 µM; in the assay with HepG2 (Homo sapiens, HepG2, 48 h) it was 30 ± 0.92 µM; in assay [1], 30 to 45.8 µM.
As for `Cc1cc(Nc2ccc(C(=O)N/N=C/c3cc4ccccc4nc3Cl)cc2)c2cccc(O)c2n1` [7U, (E)-N'-((2-chloroquinolin-3-yl)methylene)-4-((8-hydroxy-2-methylquinolin-4-yl)amino)benzohydrazide], the IC50 in the assay on LO2 (setting [2]) was determined as 18 ± 1.29 µM; with SMMC-7721 (Homo sapiens, SMMC-7721, 48 h), 19.9 ± 0.94 µM; with HuH7 (Homo sapiens, Huh-7, 48 h), 30.9 ± 3.39 µM; in the assay with HepG2 (Homo sapiens, HepG2, 48 h) it was 17.6 ± 1.09 µM.
The corresponding values for `Cc1cc(Nc2ccc(C(=O)N/N=C/c3csc4ccccc34)cc2)c2cccc(O)c2n1` [7V, (E)-N'-(benzo[b]thiophen-3-ylmethylene)-4-((8-hydroxy-2-methylquinolin-4-yl)amino)benzohydrazide] are 3.06 ± 0.11 µM, 21.7 ± 1.96 µM, 20.4 ± 2.75 µM and 13.7 ± 2.85 µM.
`N.N.[Cl][Pt][Cl]` [CDDP, Cisplatinum, reference compound]: the IC50 in the assay on LO2 (read-out: IC50 LO2, normal liver cell line, MTT, 48 h) is 4.23 ± 0.52 µM; with SMMC-7721 (setting [3]) it was 1.58 ± 0.08 µM; in the assay with HuH7 (setting [3]) it was 3.69 ± 0.55 µM; with HepG2 (setting [3]) it was 2.21 ± 0.35 µM.
In the case of `Oc1ccc(C(c2c[nH]c3ccccc23)c2c[nH]c3ccccc23)cc1` [CDIM8, reference compound], the “effect on the inhibition of HepG2 cell proliferation by TMHA37” value with HepG2 (20 μM CDIM8, 5 μM TMHA37, 48 h, MTT) is listed as “significantly reversed the inhibitory effect of TMHA37 on HepG2 cell proliferation”.
For `CC1=C(O)C(=O)C=C2C1=CC=C1[C@@]2(C)CC[C@@]2(C)[C@@H]3C[C@](C)(C(=O)O)CC[C@]3(C)CC[C@]12C` [Celastrol, reference compound], the IC50 in the assay with SMMC-7721 (Homo sapiens, SMMC-7721, 48 h) was 16 ± 3.28 µM; in the assay with HuH7 (Homo sapiens, Huh-7, 48 h), 34.9 ± 2.21 µM; in the assay on HepG2 (Homo sapiens, HepG2, 48 h) it was 18.6 ± 1.01 µM.
